Data on twelve molecules can be found in patent US20090011025A1, “Biotin-Amino Acid Conjugate Useful as a Hydrogelator and Hydrogel Prepared Therefrom” (POSTECH FOUNDATION, priority 2005, published 2009).

Data set [1] in a line: Gelation capability of gelators, stable-to-inversion of container method (minimum gelation concentration, gel stability and clarity). Format: physicochemical. The arrangement: key to minimum gelation concentration (MGC): —: no gel formed. Particulars: for stability of gel (time the gel persisted): in each medium; for stability of gel (time the gel lasted): aqueous media. Here is the method:
In order to examine the gelation capability of gelators 1 to 11, the degrees of gelation in various aqueous media were measured as follows, in accordance with the “stable-to-inversion of container” method (Menger, F. M. and Caran, K. L., J. Am. Chem. Soc. 2000, 122, 11679).
Specifically, 0.002 to 0.04 g of each gelator and 1 ml of an aqueous medium (distilled water, 0.9% aqueous NaCl solution, 0.01 M hydrochloric buffer (pH 2.0), 0.05 M phthalate buffer (pH 4.0), 0.08 M MOPSO buffer (pH 7.0) or 0.025 M sodium tetraborate buffer (pH 9.0)) were put into a sealed glass tube (5 mm i.d.), and the mixture was heated at 100° C. until a solution was obtained. The tube was then maintained at room temperature for 5 to 10 min.
Then, the minimum gelation concentration (MGC, wt %), i.e., the lowest concentration of a gelator at which it forms a hydrogel, of each gelator compound was determined, and the result is shown in Table 1.

A further data set has as its target streptavidin (Streptomyces avidinii, UniProt P22629). The experiment in a line: Influence of ligand-receptor interaction (streptavidin) on the gel state of a hydrogel, SEM. The conditions noted are these: 0.002 equivalent of streptavidin, after 1 hour. The protocol: The influence of ligand-receptor interaction on the gel state of hydrogels was examined as follows.
0.002 g of gelator 9 was added to 1 ml of distilled water, and the mixture was heated at 100° C. to form a hydrogel.

Data set [2] can be described thus: Textures of the hydrogels/xerogels by scanning electron microscopy (SEM). Format: physicochemical. Particulars: gel at MGC in distilled water, freeze-dried. The protocol: The textures of the hydrogels formed by the gelators prepared in the Examples were examined as follows, employing a scanning electron microscopy (SEM).
First, gelators 1 to 11 were each dissolved in 1 ml of distilled water in an amount ranging from 0.003 to 0.02 g to reach the corresponding MGC listed in Table 1, and the mixture was heated at 100° C. to form a hydrogel. The hydrogel was frozen at −78° C., and freeze-dried for 6 hours to obtain a xerogel.

The conditions of data set [3]: cited from earlier work.
The mark [4] stands for this setting: pH 2 (0.01 M hydrochloric buffer).
The mark [5] stands for this setting: pH 9 (0.025 M sodium tetraborate buffer).

As usually defined, the melting point is the temperature of the solid-liquid transition.

Sequence of streptavidin (P22629 25-183, species assumed): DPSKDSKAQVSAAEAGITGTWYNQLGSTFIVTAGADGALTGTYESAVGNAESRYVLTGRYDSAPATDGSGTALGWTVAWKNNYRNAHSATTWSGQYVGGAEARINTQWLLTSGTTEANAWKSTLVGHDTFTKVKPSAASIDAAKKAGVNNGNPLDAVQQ

The molecule `CCCC[C@H](NC(=O)CCCC[C@@H]1SC[C@@H]2NC(=O)N[C@@H]21)C(=O)O` [Gelator 9, N-biotinyl-L-norleucine] came in with a melting point of 172 °C. Moreover, the “minimum gelation concentration (MGC)” value in data set [1] (H2O/0.9% NaCl (aq.)) came to 0.3 wt %. In addition, in data set [1] (at MGC in distilled water), the “molecules of water immobilized by one molecule of gelator” value is 6,700 molecules of water. For the same molecule, in data set [1] (setting [4]), the “minimum gelation concentration (MGC)” value was 0.2 wt %. The “minimum gelation concentration (MGC)” value in data set [1] (pH 4 (0.05 M phthalate buffer)) was 0.5 wt %. Also, the “minimum gelation concentration (MGC)” value in data set [1] (pH 7 (0.08 M MOPSO buffer)) is 1.2 wt %. Further, in data set [1] (setting [5]), the “minimum gelation concentration (MGC)” value stood at 1.5 wt %. In addition, the “gel state after addition of streptavidin” value at streptavidin was “disrupted”.

The molecule `CC(C)C[C@H](NC(=O)CCCC[C@@H]1SC[C@@H]2NC(=O)N[C@@H]21)C(=O)O` [Gelator 2, N-biotinyl-L-leucine] registered a melting point of 209 to 210 °C. In data set [1], the clarity of gel result is listed as “translucent to opaque” and the “stability of gel (time the gel persisted)” value is recorded as “about 6 months”. For the same molecule, the “minimum gelation concentration (MGC)” value in data set [1] (H2O/0.9% NaCl (aq.)) stood at 1.6 wt %. In addition, the “minimum gelation concentration (MGC)” value in data set [1] (setting [4]) is on record as 1.4 wt %. For the same molecule, the “minimum gelation concentration (MGC)” value in data set [1] (pH 4 (0.05 M phthalate buffer)) is recorded as 1.8 wt %. The “minimum gelation concentration (MGC)” value in data set [1] (pH 7 (0.08 M MOPSO buffer)) is listed as 2.8 wt %. Besides, in data set [1] (setting [5]), the “minimum gelation concentration (MGC)” value amounted to 3.6 wt %. In addition, the “structure type of hydrogel (xerogel SEM image)” value in data set [2] is listed as “fibrous structures”.

`O=C(CCCC[C@@H]1SC[C@@H]2NC(=O)N[C@@H]21)N[C@@H](Cc1ccc(O)cc1)C(=O)O` [Gelator 6, N-biotinyl-L-tyrosine] registered a melting point of 259 to 260 °C. In addition, in data set [1] (H2O/0.9% NaCl (aq.)), the “minimum gelation concentration (MGC)” value is on record as “—”. For the same molecule, the “minimum gelation concentration (MGC)” value in data set [1] (setting [4]) is “—”. Also, in data set [1] (pH 4 (0.05 M phthalate buffer)), the “minimum gelation concentration (MGC)” value is “—”. Also, in data set [1] (pH 7 (0.08 M MOPSO buffer)), the “minimum gelation concentration (MGC)” value is “—”. Also, the “minimum gelation concentration (MGC)” value in data set [1] (setting [5]) is “—”.

`O=C(CCCC[C@@H]1SC[C@@H]2NC(=O)N[C@@H]21)N[C@@H](Cc1c[nH]c2ccccc12)C(=O)O` [Gelator 7, N-biotinyl-L-tryptophan] yielded a melting point of 160 to 161 °C. Besides, the “minimum gelation concentration (MGC)” value in data set [1] (H2O/0.9% NaCl (aq.)) is recorded as “—”. For the same molecule, the “minimum gelation concentration (MGC)” value in data set [1] (setting [4]) is recorded as “—”. The “minimum gelation concentration (MGC)” value in data set [1] (pH 4 (0.05 M phthalate buffer)) is reported as “—”. Moreover, in data set [1] (pH 7 (0.08 M MOPSO buffer)), the “minimum gelation concentration (MGC)” value is “—”. Besides, the “minimum gelation concentration (MGC)” value in data set [1] (setting [5]) is recorded as “—”.

With `CC(C)[C@H](NC(=O)CCCC[C@@H]1SC[C@@H]2NC(=O)N[C@@H]21)C(=O)O` [Gelator 5, N-biotinyl-L-valine], the melting point is 215 to 216 °C. In data set [1], the clarity of gel entry is on record as “opaque” and the “stability of gel (time the gel lasted)” value is on record as “about 1 week”. Moreover, in data set [1] (H2O/0.9% NaCl (aq.)), the “minimum gelation concentration (MGC)” value is listed as 1.4 wt %. Further, in data set [1] (setting [4]), the “minimum gelation concentration (MGC)” value is reported as 1.0 wt %. In addition, the “minimum gelation concentration (MGC)” value in data set [1] (pH 4 (0.05 M phthalate buffer)) came to 1.4 wt %. Also, in data set [1] (pH 7 (0.08 M MOPSO buffer)), the “minimum gelation concentration (MGC)” value was determined as 2.7 wt %. In data set [1] (setting [5]), the “minimum gelation concentration (MGC)” value was determined as 4.0 wt %. For the same molecule, in data set [2], the “structure type of hydrogel (xerogel SEM image)” value is recorded as “lamellar structures”.

`CCC[C@H](NC(=O)CCCC[C@@H]1SC[C@@H]2NC(=O)N[C@@H]21)C(=O)O` [Gelator 8, N-biotinyl-L-norvaline] returned a melting point of 255 °C. In addition, in data set [1], the clarity of gel entry was “opaque” and the “stability of gel (time the gel lasted)” value is on record as “about 1 week”. Also, the “minimum gelation concentration (MGC)” value in data set [1] (H2O/0.9% NaCl (aq.)) was found to be 1.2 wt %. In data set [1] (setting [4]), the “minimum gelation concentration (MGC)” value is listed as 0.9 wt %. Also, the “minimum gelation concentration (MGC)” value in data set [1] (pH 4 (0.05 M phthalate buffer)) was determined as 1.2 wt %. Moreover, the “minimum gelation concentration (MGC)” value in data set [1] (pH 7 (0.08 M MOPSO buffer)) stood at 2.5 wt %. Also, in data set [1] (setting [5]), the “minimum gelation concentration (MGC)” value was 3.8 wt %. Besides, in data set [2], the “structure type of hydrogel (xerogel SEM image)” value is “lamellar structures”.

Take `CC[C@H](C)[C@H](NC(=O)CCCC[C@@H]1SC[C@@H]2NC(=O)N[C@@H]21)C(=O)O` [Gelator 4, N-biotinyl-L-isoleucine]: the melting point fell in the range of 230 to 233 °C. Besides, in data set [1], the clarity of gel entry is listed as “opaque” and the “stability of gel (time the gel lasted)” value is “about 1 week”. Also, the “minimum gelation concentration (MGC)” value in data set [1] (H2O/0.9% NaCl (aq.)) stood at 1.2 wt %. In addition, the “minimum gelation concentration (MGC)” value in data set [1] (setting [4]) stood at 1.0 wt %. In addition, the “minimum gelation concentration (MGC)” value in data set [1] (pH 4 (0.05 M phthalate buffer)) is recorded as 1.2 wt %. Besides, the “minimum gelation concentration (MGC)” value in data set [1] (pH 7 (0.08 M MOPSO buffer)) is 2.7 wt %. For the same molecule, the “minimum gelation concentration (MGC)” value in data set [1] (setting [5]) was 3.9 wt %. In data set [2], the “structure type of hydrogel (xerogel SEM image)” value is recorded as “lamellar structures”.

Regarding `O=C(CCCC[C@@H]1SC[C@@H]2NC(=O)N[C@@H]21)N[C@@H](Cc1ccccc1)C(=O)O` [Gelator 1, N-biotinyl-L-phenylalanine], the melting point was 205 °C. Besides, in data set [1], the clarity of gel entry was “translucent to opaque” and the “stability of gel (time the gel persisted)” value is “about 6 months”. Further, the “minimum gelation concentration (MGC)” value in data set [1] (H2O/0.9% NaCl (aq.)) is on record as 2.0 wt %. In addition, the “minimum gelation concentration (MGC)” value in data set [1] (setting [4]) is given as 1.5 wt %. Moreover, the “minimum gelation concentration (MGC)” value in data set [1] (pH 4 (0.05 M phthalate buffer)) came to 2.0 wt %. In data set [1] (pH 7 (0.08 M MOPSO buffer)), the “minimum gelation concentration (MGC)” value worked out at 3.0 wt %. Besides, in data set [1] (setting [5]), the “minimum gelation concentration (MGC)” value came out at 4.0 wt %. Besides, the “structure type of hydrogel (xerogel SEM image)” value in data set [2] is reported as “fibrous structures”.

For the molecule `CCCCCC(NC(=O)CCCC[C@@H]1SC[C@@H]2NC(=O)N[C@@H]21)C(=O)O` (stereo partly drawn) [Gelator 10, N-biotinyl-D,L-2-aminoenantic acid], the “minimum gelation concentration (MGC)” value is reported as 0.8 wt % in data set [1] (H2O/0.9% NaCl (aq.)); 0.6 wt % in data set [1] (setting [4]); 1.0 wt % in data set [1] (pH 4 (0.05 M phthalate buffer)); 2.0 wt % in data set [1] (pH 7 (0.08 M MOPSO buffer)); 4.0 wt % in data set [1] (setting [5]).

`CSCC[C@H](NC(=O)CCCC[C@@H]1SC[C@@H]2NC(=O)N[C@@H]21)C(=O)O` [Gelator 3, N-biotinyl-L-methionine] gave a melting point of 207 °C. In data set [1] (H2O/0.9% NaCl (aq.)), the “minimum gelation concentration (MGC)” value was 1.8 wt %. In addition, in data set [1] (setting [4]), the “minimum gelation concentration (MGC)” value is listed as “—”. In data set [1] (pH 4 (0.05 M phthalate buffer)), the “minimum gelation concentration (MGC)” value is given as “—”. Further, the “minimum gelation concentration (MGC)” value in data set [1] (pH 7 (0.08 M MOPSO buffer)) was “—”. In data set [1] (setting [5]), the “minimum gelation concentration (MGC)” value is “—”.

As to `O=C(O)CCCC[C@@H]1SC[C@@H]2NC(=O)N[C@@H]21` [biotin], in data set [3] (organic solvents), the “solubility in organic solvents” value is listed as “insolubility”. Also, the solubility in water in data set [3] (water) was 1.0-0.8 mmol/L.

The molecule `CCCCCCC(NC(=O)CCCC[C@@H]1SC[C@@H]2NC(=O)N[C@@H]21)C(=O)O` (mixture of isomers) [Gelator 11, N-biotinyl-D,L-2-aminocaprylic acid] had a melting point of 198.5 °C. The “minimum gelation concentration (MGC)” value in data set [1] (H2O/0.9% NaCl (aq.)) worked out at 0.6 wt %. Besides, the “minimum gelation concentration (MGC)” value in data set [1] (setting [4]) came out at 0.8 wt %. Further, the “minimum gelation concentration (MGC)” value in data set [1] (pH 4 (0.05 M phthalate buffer)) is listed as 0.8 wt %. The “minimum gelation concentration (MGC)” value in data set [1] (pH 7 (0.08 M MOPSO buffer)) worked out at 1.7 wt %. Besides, in data set [1] (setting [5]), the “minimum gelation concentration (MGC)” value is 3.5 wt %.
